Measured values from patent US10329309B2, “3-(3H-imidazo[4,5-B]pyridin-2-yl)-1H-pyrazolo[4,3-B]pyridines and therapeutic uses thereof” (Samumed, LLC, priority 2015, dated 2019).

Assays:
[1] = test system: primary human mesenchymal stem cells (hMSCs); assay: Induction of chondrogenesis in primary human mesenchymal stem cells (nodule imaging, Rhodamine B/Nile Red); type: cell-based; settings: hMSC chondrogenesis; for Emax: TGF-β3 as positive control, read-out: Max. Activity as % TGF-β3 activity; for EC50: concentration required to induce 50% levels of chondrogenesis vs TGF-β3, read-out: Conc (nM) of 50% TGF-β3 activity
Method in brief: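 hMSCs (passage 3–6) in incomplete chondrogenic induction medium were dosed at 2700–10 nM (96-well, 6-point) or 5000–2.2 nM (384-well, 8-point), 0.03% DMSO final, for 6 days at 37° C. Fixed nodules stained with Rhodamine B/Nile Red were imaged; nodule area normalized to DMSO wells gave EC50, maximum activity and dose at maximum, with TGF-β3 (10 ng/mL) as positive control.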

IL-6 (THP-1 cells) = assay: Inhibition of IL-6 in LPS-stimulated THP-1 monocytes (HTRF); type: cell-based; settings: Homo sapiens; for EC50: LPS 500 ng/mL, IL-6 by HTRF; for inhibition at 10 µM: LPS stimulated, IL-6, at 10 μM, read-out: percent inhibition at 10 μM (given for EC50 of >10 μM)
Method in brief: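 THP-1 cells, serum-starved in 1% FBS for 24 h, were pre-incubated 2 h with compound (10-point, 1:3 from 10 μM, 0.1% DMSO), then stimulated with 500 ng/mL LPS for 22 h at 37 °C. IL-6 was quantified by HTRF 665/620 ratio. EC50 was fitted from DMSO-normalized data; above 10 μM, % inhibition at 10 μM is given.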

Structure (SMILES) | Emax [1] | EC50 (IL-6 (THP-1 cells)) | inhibition at 10 µM (IL-6 (THP-1 cells)) | EC50 [1]
Fc1ccc(-c2ccnc3[nH]c(-c4n[nH]c5ccc(-c6cncc(CN7CCCC7)c6)nc45)nc23)cc1 [Compound 42, 3-(7-(4-fluorophenyl)-3H-imidazo[4,5-b]pyridin-2-yl)-5-(5-(pyrrolidin-1-ylmethyl)pyridin-3-yl)-1H-pyrazolo[4,3-b]pyridine] | 17% | > 10 µM | 46.1% | 
CC(C)CC(=O)Nc1cncc(-c2ccc3[nH]nc(-c4nc5c(-c6cccc(F)c6)ccnc5[nH]4)c3n2)c1 [Compound 2, N-(5-(3-(7-(3-fluorophenyl)-3H-imidazo[4,5-b]pyridin-2-yl)-1H-pyrazolo [4,3-b]pyridin-5-yl)pyridin-3-yl)-3-methylbutanamide] | 56% | 0.296 µM |  | 21 nM
Fc1cccc(-c2ccnc3[nH]c(-c4n[nH]c5ccc(-c6cncc(OCCN7CCCC7)c6)nc45)nc23)c1 [Compound 514, 3-(7-(3-Fluorophenyl)-3H-imidazo[4,5-b]pyridin-2-yl)-5-(5-(2-(pyrrolidin-1-yl)ethoxy)pyridin-3-yl)-1H-pyrazolo[4,3-b]pyridine] |  | > 10 µM | 49.5% | 
O=C(Nc1cncc(-c2ccc3[nH]nc(-c4nc5c(-c6ccsc6)ccnc5[nH]4)c3n2)c1)c1ccccc1 [Compound 291, N-(5-(3-(7-(Thiophen-3-yl)-3H-imidazo[4,5-b]pyridin-2-yl)-1H-pyrazolo [4,3-b]pyridin-5-yl)pyridin-3-yl)benzamide] |  | > 10 µM | 21% | 
CN(C)CCOc1cncc(-c2ccc3[nH]nc(-c4nc5c(-c6cccc(F)c6)ccnc5[nH]4)c3n2)c1 [Compound 515, 2-((5-(3-(7-(3-fluorophenyl)-3H-imidazo[4,5-b]pyridin-2-yl)-1H-pyrazolo[4,3-b]pyridin-5-yl)pyridin-3-yl)oxy)-N,N-dimethylethan-1-amine] | 45% | 5.54 µM |  | 
O=C(Nc1cncc(-c2ccc3[nH]nc(-c4nc5c(-c6cccs6)ccnc5[nH]4)c3n2)c1)C1CC1 [Compound 356, N-(5-(3-(7-(Thiophen-2-yl)-3H-imidazo[4,5-b]pyridin-2-yl)-1H-pyrazolo [4,3-b]pyridin-5-yl)pyridin-3-yl)cyclopropanecarboxamide] |  | > 10 µM | 38% | 
Fc1cccc(-c2ccnc3[nH]c(-c4n[nH]c5ccc(C6=CCNCC6)nc45)nc23)c1 [Compound 506, 3-(7-(3-fluorophenyl)-3H-imidazo[4,5-b]pyridin-2-yl)-5-(1,2,3,6-tetrahydropyridin-4-yl)-1H-pyrazolo[4,3-b]pyridine] | 47% | > 10 µM | 27.9% | 
CC(C)Nc1cncc(-c2ccc3[nH]nc(-c4nc5c(-c6ccoc6)ccnc5[nH]4)c3n2)c1 [Compound 320, 5-(3-(7-(furan-3-yl)-3H-imidazo[4,5-b]pyridin-2-yl)-1H-pyrazolo[4,3-b]pyridin-5-yl)-N-isopropylpyridin-3-amine] | 64% | 0.456 µM |  | 100 nM
Clc1ccc(-c2ccnc3[nH]c(-c4n[nH]c5ccc(-c6cncc(CN7CCCC7)c6)nc45)nc23)s1 [Compound 1049, 3-(7-(5-chlorothiophen-2-yl)-3H-imidazo[4,5-b]pyridin-2-yl)-5-(5-(pyrrolidin-1-ylmethyl)pyridin-3-yl)-1H-pyrazolo[4,3-b]pyridine] | 74% | > 10 µM | 36.2% | 10 nM
CN(C)Cc1cncc(-c2ccc3[nH]nc(-c4nc5c(-c6cccs6)ccnc5[nH]4)c3n2)c1 [Compound 349, N,N-dimethyl-1-(5-(3-(7-(thiophen-2-yl)-3H-imidazo[4,5-b]pyridin-2-yl)-1H-pyrazolo[4,3-b]pyridin-5-yl)pyridin-3-yl)methanamine] | 108% | 4.78 µM |  | 30 nM
COc1cncc(-c2ccc3[nH]nc(-c4nc5c(-c6cccc(F)c6)ccnc5[nH]4)c3n2)c1 [Compound 516, 3-(7-(3-fluorophenyl)-3H-imidazo[4,5-b]pyridin-2-yl)-5-(5-methoxypyridin-3-yl)-1H-pyrazolo[4,3-b]pyridine] | 47% | 8.23 µM |  | 
COc1cccc(-c2ccnc3[nH]c(-c4n[nH]c5ccc(-c6cncc(NC(=O)CC(C)(C)C)c6)nc45)nc23)c1 [Compound 1006, N-(5-(3-(7-(3-methoxyphenyl)-3H-imidazo[4,5-b]pyridin-2-yl)-1H-pyrazolo[4,3-b]pyridin-5-yl)pyridin-3-yl)-3,3-dimethylbutanamide] |  | > 10 µM | 32.7% | 
CC(C)(C)CC(=O)Nc1cncc(-c2ccc3[nH]nc(-c4nc5c(-c6ccccc6F)ccnc5[nH]4)c3n2)c1 [Compound 72, N-(5-(3-(7-(2-fluorophenyl)-3H-imidazo[4,5-b]pyridin-2-yl)-1H-pyrazolo [4,3-b]pyridin-5-yl)pyridin-3-yl)-3,3-dimethylbutanamide] |  | > 10 µM | 27.8% | 
O=C(Nc1cncc(-c2ccc3[nH]nc(-c4nc5c(N6CCCCC6)ccnc5[nH]4)c3n2)c1)C1CC1 [Compound 188, N-(5-(3-(7-(Piperidin-1-yl)-3H-imidazo[4,5-b]pyridin-2-yl)-1H-pyrazolo [4,3-b]pyridin-5-yl)pyridin-3-yl)cyclopropanecarboxamide] |  | > 10 µM | 28% | 
Fc1cccc(-c2ccnc3[nH]c(-c4n[nH]c5ccc(-c6cnccn6)nc45)nc23)c1 [Compound 520, 3-(7-(3-fluorophenyl)-3H-imidazo[4,5-b]pyridin-2-yl)-5-(pyrazin-2-yl)-1H-pyrazolo[4,3-b]pyridine] | 63% | > 10 µM | 19.5% | 2 nM
Oc1cncc(-c2ccc3[nH]nc(-c4nc5c(-c6cccc(F)c6)ccnc5[nH]4)c3n2)c1 [Compound 517, 5-(3-(7-(3-fluorophenyl)-3H-imidazo[4,5-b]pyridin-2-yl)-1H-pyrazolo[4,3-b]pyridin-5-yl)pyridin-3-ol] | 59% | 1.54 µM |  | 2 nM
COc1cccc(-c2ccnc3[nH]c(-c4n[nH]c5ccc(-c6cccnc6)nc45)nc23)c1 [Compound 994, 3-(7-(3-methoxyphenyl)-3H-imidazo[4,5-b]pyridin-2-yl)-5-(pyridin-3-yl)-1H-pyrazolo[4,3-b]pyridine] | 50% | > 10 µM | 50.2% | 100 nM
NC1CN(c2cncc(-c3ccc4[nH]nc(-c5nc6c(-c7cccc(F)c7)ccnc6[nH]5)c4n3)n2)C1 [Compound 510, 1-(6-(3-(7-(3-fluorophenyl)-3H-imidazo[4,5-b]pyridin-2-yl)-1H-pyrazolo[4,3-b]pyridin-5-yl)pyrazin-2-yl)azetidin-3-amine] | 46% | 0.023 µM |  | 
Cc1ccc(-c2ccnc3[nH]c(-c4n[nH]c5ccc(-c6cncc(N)c6)nc45)nc23)s1 [Compound 395, 5-(3-(7-(5-methylthiophen-2-yl)-3H-imidazo[4,5-b]pyridin-2-yl)-1H-pyrazolo[4,3-b]pyridin-5-yl)pyridin-3-amine] | 118% | 0.25 µM |  | 100 nM
CS(=O)(=O)NCc1cc(F)cc(-c2ccnc3[nH]c(-c4n[nH]c5ccc(-c6cncc(CNCc7ccccc7)c6)nc45)nc23)c1 [Compound 500, N-(3-(2-(5-(5-((Benzylamino)methyl)pyridin-3-yl)-1H-pyrazolo[4,3-b]pyridin-3-yl)-3H-imidazo[4,5-b]pyridin-7-yl)-5-fluorobenzyl)methanesulfonamide] |  | > 10 µM | 45.6% | 
CCCCC(=O)Nc1cncc(-c2ccc3[nH]nc(-c4nc5c(-c6ccoc6)ccnc5[nH]4)c3n2)c1 [Compound 327, N-(5-(3-(7-(furan-3-yl)-3H-imidazo[4,5-b]pyridin-2-yl)-1H-pyrazolo[4,3-b]pyridin-5-yl)pyridin-3-yl)pentanamide] | 83% | > 10 µM | 42.4% | 10 nM
COc1cccc(-c2ccnc3[nH]c(-c4n[nH]c5ccc(-c6cncc(NC(=O)C7CCCCC7)c6)nc45)nc23)c1 [Compound 1012, N-(5-(3-(7-(3-Methoxyphenyl)-3H-imidazo[4,5-b]pyridin-2-yl)-1H-pyrazolo [4,3-b]pyridin-5-yl)pyridin-3-yl)cyclohexanecarboxamide] |  | > 10 µM | 43.3% | 
CN(C)Cc1cncc(-c2ccc3[nH]nc(-c4nc5c(-c6cccc(F)c6)ccnc5[nH]4)c3n2)c1 [Compound 13, 1-(5-(3-(7-(3-fluorophenyl)-3H-imidazo[4,5-b]pyridin-2-yl)-1H-pyrazolo [4,3-b]pyridin-5-yl)pyridin-3-yl)-N,N-dimethylmethanamine] | 29% | 5.93 µM |  | 
Fc1ccccc1-c1ccnc2[nH]c(-c3n[nH]c4ccc(-c5ccccn5)nc34)nc12 [Compound 84, 3-(7-(2-Fluorophenyl)-3H-imidazo[4,5-b]pyridin-2-yl)-5-(pyridin-2-yl)-1H-pyrazolo[4,3-b]pyridine] |  | > 10 µM | 23% | 
NC1CN(c2cncc(-c3ccc4[nH]nc(-c5nc6c(-c7ccc(Cl)s7)ccnc6[nH]5)c4n3)n2)C1 [Compound 1068, 1-(6-(3-(7-(5-Chlorothiophen-2-yl)-3H-imidazo[4,5-b]pyridin-2-yl)-1H-pyrazolo[4,3-b]pyridin-5-yl)pyrazin-2-yl)azetidin-3-amine] |  | 1.77 µM |  | 
